{"source": "patent US7109043B2", "about": "“Fluorescent probe for magnesium ion determination” (Japan Science and Technology Corporation, priority 2000, dated 2006)", "key": {"[1]": {"test": "Binding constant to magnesium ion by fluorescence titration (Benesi-Hildebrand plot)", "conditions": "for KMg (binding constant to Mg^2+): probe 10 μM in HEPES 10.0 mM, KCl 120.0 mM, NaCl 20.0 mM, EGTA 2.0 mM, pH 7.20, excitation 448 nm, fluorescence 505 nm; for KMg/KCa (selectivity to magnesium ion): ratio of binding constant to magnesium ion to binding constant to calcium ion", "description": "(§1) Selectivities to magnesium ion (i.e., the ratio of binding constant to magnesium ion to the binding constant to calcium ion) of KMG-20 synthesized in Example 1 and KMG-27 synthesized in Example 4 were measured. More particularly, this measurement was carried out as follows:\n(§2) The fluorescent indicator was dissolved in a solvent (HEPES 10.0 mM, KCl 120.0 mM, NaCl 20.0 mM, EGTA 2.0 mM, pH 7.20) to a concentration of 10 μM. To this solution, a metal salt solution (MgCl2, CaCl2) in the above-described solvent was added to a concentration of 0 to 500 mM, and fluorescence spectrum was measured.\n(§3) The conditions of the fluorophotometer (Hitachi F4500) were as follows: excitation wavelength: 448 nm, slit width: excitation side: 2.5 nm, fluorescence side 2.5 nm, photomultiplier voltage: 700V, scanning rate: 240 nm/min.\nThe fluorescence intensities at the maximum fluorescence wavelength (505 nm) when the concentration of the metal ion was changed were measured, and the binding constants to Mg^2+ and Ca^2+ were calculated by using Benesi-Hildebrand plot method (J. Am. Chem. Soc. 71, 2703 (1949)).\nFor comparison, the binding constants of known magnesium probes commercially available from Molecular Probes, that is, mag-fura-2 (Proc. Natl. Acad. Sci. USA, 86, 2981 (1989)), mag-indo-1(J. Physiol, 475, 319 (1994)), mag-fura-5 (J. Physiol, 475, 319 (1994)) and Magnesium Green (J. Biol. Chem. 270, 18975 (1995)) are also shown in Table 1."}, "[2]": {"test": "Binding constant to calcium ion by fluorescence titration (Benesi-Hildebrand plot)", "conditions": "probe 10 μM in HEPES 10.0 mM, KCl 120.0 mM, NaCl 20.0 mM, EGTA 2.0 mM, pH 7.20; excitation 448 nm, fluorescence 505 nm", "description": "as §1, §2, §3\nThe fluorescence intensities at the maximum fluorescence wavelength (505 nm) when the concentration of the metal ion was changed were measured, and the binding constants to Mg^2+ and Ca^2+ were calculated by using Benesi-Hildebrand plot method (J. Am. Chem. Soc. 71, 2703 (1949)). […]"}, "[3]": {"tested_on": "bovine vascular endothelial cells", "test": "Measurement of magnesium ions in cells using fluorescent probe (No. 1), fluorescence microscopy", "type": "cell-based", "description": "Magnesium ions in cells were measured using the fluorescent probe KMG-20 synthesized in Example 1. Since the fluorescent probe KMG-20 has an acetoxymethyl group, it has a high lipid solubility and is easy to transfer from the culture medium to the cell membrane. In the vicinity of the cell membrane, the acetoxymethyl group is removed by an ester hydrolysis enzyme in the cell and becomes again a water-soluble compound having a carboxyl group, so that it is diffused into the cytoplasm. Upon forming a complex with a magnesium ion, the fluorescence of KMG-20 is increased.\nA solution of the fluorescent probe KMG-20 in DMSO (1.0 ml) was added to Hanks-HEPES buffer so as to attain a final concentration of 10.0 μM, and the mixture was subjected to ultrasonication. The culture medium in which bovine vascular endothelial cells had been cultured at 37° C. on a petri dish was replaced with the above-described KMG-20 solution, and the cells were incubated at 37° C. for 30 minutes. […] The excitation wavelength was 440 nm and the detection wavelength was 500–530 nm. For comparison, the cells before the treatment with the fluorescence probe were also observed with the fluorescence microscope.\n(§4) To clarify the behavior of free magnesium ions in the cells, 5 μM carbonylcyanoid p-(trifluoromethoxy)phenylhydrazone (FCCP) was added. As a result, the entire cell was brightened. The change in the fluorescence intensity with time after the addition of FCCP was observed. […] It is known that magnesium ion usually binds to an oxygen atom in the phosphoric acid ester moiety of a phosphorylated substrate such as ATP, ADP, phosphorylated saccharide, nucleic acid or the like to neutralize the electric charge thereof, and serves as an acid catalyst, and that enzymes whose corresponding substrates are phosphoric acid ester compounds require magnesium ion as a co-factor. Since FCCP serves as a respiration inhibitor of mitochondria in the cells, the ATP activity in the cells is decreased and so the free magnesium ion level is increased, it is thought that KMG-20 formed a complex with magnesium ion, thereby increasing the fluorescence intensity.\n(§5) Further, 10 μM acetylcholine was added to the cells so as to compulsively increase the calcium level in the cells."}, "[4]": {"tested_on": "PC-12 cells", "test": "Measurement of magnesium ions in cells using fluorescent probe (No. 2), fluorescence microscopy", "type": "cell-based, rat", "conditions": "for Change in fluorescence intensity after addition of FCCP: 5.0 μM FCCP (raises free magnesium ion level); for Staining / dispersion of the probe in cells: excitation 440 nm, detection 500–530 nm", "description": "Behavior of magnesium ions in cells were measured using the fluorescent probe synthesized in Example 4.\nSince this fluorescent probe KMG-20 has an acetoxymethyl group, it has a high lipid solubility and is easy to transfer from the culture medium to the cell membrane. In the vicinity of the cell membrane, the acetoxymethyl group is removed by an ester hydrolysis enzyme in the cell and becomes again a water-soluble compound having a carboxyl group, so that it is diffused into the cytoplasm.\nA solution of the fluorescent probe in DMSO (1.0 ml) was added to Hanks-HEPES buffer so as to attain a final concentration of 10.0 μM, and the mixture was subjected to ultrasonication. The culture medium in which PC-12 cells (cloned nerve cells isolated from rat adrenal medulla chrome-philic cytoma) had been cultured at 37° C. on a petri dish was replaced with the fluorescent probe solution, and the cells were incubated at 37° C. for 30 minutes. […] The excitation wavelength was 440 nm and the detection wavelength was 500–530 nm. For comparison, the cells before the treatment with the fluorescence probe were also observed with the fluorescence microscope.\nas §4, with “5.0” for “5”, “the fluorescent probe” for “KMG-20”\nas §5"}, "[5]": {"conditions": "known commercial magnesium probes, literature values for comparison; cited from earlier work"}, "[6]": {"conditions": "known commercial magnesium probes, literature values for comparison; cited from earlier work", "remark": "listed apart in the source"}, "[7]": {"conditions": "10 μM acetylcholine (increases calcium level in the cells)"}, "[8]": {"conditions": "10.0 μM probe, 37° C. 30 minutes, fluorescence microscope"}}, "note": "Entries after “also recorded” stand apart in the source; their conditions may differ. Read-outs that look alike come from different tables or passages of the source.", "data": [{"smiles": "CC(=O)OCOC(=O)c1cc2cc3c4c(c2oc1=O)CCCN4CCC3", "note": "[KMG-20, (13-aza-3-oxa-4-oxotetracyclo[7.7.1.0<2,7>.0<13,17>]heptadeca-1(17),2(7),5,8-tetraene-5-ylcarbonyloxy)methyl acetate]", "values": [{"measurement": "KMg (binding constant to Mg^2+)", "setting": "[1]", "value": 100.0, "unit": "M⁻¹"}, {"measurement": "KMg/KCa (selectivity to magnesium ion)", "setting": "[1]", "value": 3.0}, {"measurement": "KCa (binding constant to Ca^2+)", "setting": "[2]", "value": 33.3, "unit": "M⁻¹"}, {"measurement": "Change in fluorescence intensity after addition of FCCP", "setting": "[3]; 5 μM FCCP (raises free magnesium ion level)", "value": "fluorescence intensity was increased during 1 minute from the addition of FCCP"}, {"measurement": "Change in fluorescence intensity after addition of acetylcholine", "setting": "[3]; [7]", "value": "increase of the fluorescence intensity was not observed"}, {"measurement": "Staining / dispersion of the probe in cells", "setting": "[3]; 10.0 μM probe, 37° C. 30 minutes, excitation 440 nm, detection 500–530 nm", "value": "uniformly dispersed and stained the cells; also recorded: uniformly dispersed in the cytoplasm"}, {"measurement": "Location of the probe in the cell", "setting": "[3]; [8]", "value": "located in the vicinity of the nucleus"}]}, {"smiles": "COC(=O)c1cc2cc3c4c(c2oc1=O)C(C)(C)CCN4CCC3(C)C", "note": "[KMG-27, methyl-13-aza-10,10,16,16-tetramethyl-3-oxa-4-oxo-tetracyclo[7,7,1,0<2,7>.O<13,17>]heptadeca-1(17),2(7),5,8-tetraene-5-carboxylate]", "values": [{"measurement": "KMg (binding constant to Mg^2+)", "setting": "[1]", "value": 102.0, "unit": "M⁻¹"}, {"measurement": "KMg/KCa (selectivity to magnesium ion)", "setting": "[1]", "value": 3.09}, {"measurement": "KCa (binding constant to Ca^2+)", "setting": "[2]", "value": 33.0, "unit": "M⁻¹"}, {"measurement": "Change in fluorescence intensity after addition of FCCP", "setting": "[4]", "value": "increase in the fluorescent intensity was observed"}, {"measurement": "Change in fluorescence intensity after addition of FCCP", "setting": "[4]; listed as Example 4", "value": "fluorescence intensity was increased during 1 minute from the addition of FCCP"}, {"measurement": "Change in fluorescence intensity after addition of acetylcholine", "setting": "[4]; [7]", "value": "increase of the fluorescence intensity was not observed"}, {"measurement": "Staining / dispersion of the probe in cells", "setting": "[4]; 10.0 μM probe, 37° C. 30 minutes", "value": "uniformly dispersed in the cells"}, {"measurement": "Staining / dispersion of the probe in cells", "setting": "[4]; 10.0 μM probe, 37° C. 30 minutes, listed as Example 4", "value": "uniformly dispersed and stained the cells"}, {"measurement": "Location of the probe in the cell", "setting": "[4]; [8]", "value": "located in the vicinity of the nucleus"}]}, {"smiles": "O=C([O-])COc1cc(NC(=O)c2ccc3c(c2)C(=O)OC32c3cc(Cl)c([O-])cc3Oc3cc([O-])c(Cl)cc32)ccc1N(CC(=O)[O-])CC(=O)[O-].[K+].[K+].[K+].[K+].[K+]", "note": "[Magnesium Green]", "values": [{"measurement": "KMg/KCa (selectivity to magnesium ion)", "setting": "[1]", "value": 0.003}, {"measurement": "KMg (binding constant to Mg^2+)", "setting": "[5]", "value": 500.0, "unit": "M⁻¹"}, {"measurement": "KCa (binding constant to Ca^2+)", "setting": "[6]", "value": "166,660 M^−1"}]}, {"smiles": "O=C(O)COc1cc2cc(-c3ncc(C(=O)O)o3)oc2cc1N(CC(=O)O)CC(=O)O", "note": "[mag-fura-2]", "values": [{"measurement": "KMg/KCa (selectivity to magnesium ion)", "setting": "[1]", "value": 0.013}, {"measurement": "KMg (binding constant to Mg^2+)", "setting": "[5]", "value": 526.3, "unit": "M⁻¹"}, {"measurement": "KCa (binding constant to Ca^2+)", "setting": "[6]", "value": "40,000 M^−1"}]}, {"smiles": "O=C(O)COc1cc(-c2cc3ccc(C(=O)O)cc3[nH]2)ccc1N(CC(=O)O)CC(=O)O", "note": "[mag-indo-1]", "values": [{"measurement": "KMg/KCa (selectivity to magnesium ion)", "setting": "[1]", "value": 0.013}, {"measurement": "KMg (binding constant to Mg^2+)", "setting": "[5]", "value": 370.4, "unit": "M⁻¹"}, {"measurement": "KCa (binding constant to Ca^2+)", "setting": "[6]", "value": "28,570 M^−1"}]}]}
